We go through 3 molecules from US20040202652A1, “Methods and compositions for control of bone formation via modulation of leptin activity” (Baylor College of Medicine, priority 1999, published 2004).

“Also recorded” adds a separate entry of the source.

The test system of series [1] is ob/ob mice. The series is described as follows: 17 β-estradiol pellet treatment to correct hypogonadism of ob/ob mice. It is filed as in vivo. The method, then:
(§1) Histologic analysis was performed on undecalcified sections stained with the von Kossa reagent and counterstained with Kernechtrot. In 3 and 6 month-old mice the presence of many more thick trabeculae in the bones of ob/ob mice compared to those of wild-type mice was observed (FIG. 1B). The cortical bone was not affected. Histomorphometric quantification according to standard techniques were performed (Parfitt et al., 1987, J Bone Min Res 2, 595-610) using the Osteomeasure Analysis System (Osteometrics, Atlanta). Statistical differences between groups (n=4 to 6) were assessed by Student's test. […] The functional consequences of this increase in bone mass were analyzed by comparing the biomechanical properties of long bones of 6 month-old ob/ob mice, wild-type mice, and wild-type mice that have been ovariectomized (wild-type-ovx) for 4 months to mimic the hypogonadic state of the ob/ob mice. An assay in which femora were tested to failure by three-point bending on a servo-hydrolic testing machine (Zwick GmbH & Co.) at a constant displacement rate of 10 mm/min was used to determine failure load, which is a measure of the strength of the bones. […] Analysis of the bones of the db/db mice that have an inactivating mutation of the leptin receptor was also performed (Tartaglia et al., 1995, Cell 83, 1263-1271). Like the ob/ob mice, the db/db mice are obese and hypogonadic. There was an increase in the number of trabeculae in both long bones and vertebrae similar to that observed in ob/ob mice (FIG. IE) resulting in a 3-fold increase in bone volume compared to wild-type mice (FIG. 1F).
Nevertheless, to address this point more thoroughly the hypogonadism of the ob/ob mice was exploited. Hypogonadism normally leads to an increase in osteoclasts number and in bone resorptive activity. Thus, if the osteoclasts of the ob/ob mice were functional, correcting the hypogonadism of these mice should decrease their rate of bone resorption by diminishing the number of osteoclasts and thereby should further increase their bone mass. On the other hand, if the osteoclasts of the ob/ob mice were not functioning properly, correcting their hypogonadism should not affect the severity of their high bone mass phenotype. To determine which of these two possibilities was correct, 17 β-estradiol or placebo pellets (Innovative Research of America) were implanted subcutaneously in 2-month-old female ob/ob mice to maintain a serum concentration of 250 pg/mL. These animals were analyzed after a 3-month treatment period.

Series [2] relates to Stat3 phosphorylation. The series is described as follows: Western blot analysis of Stat3 phosphorylation in primary osteoblast cultures. It is filed as cell-based, mice. Here is the method:
(§2) Expression of leptin in osteoblasts was studied in subconfluent primary osteoblast cultures from wild-type mice which were maintained for 4 days in 10% FBS mineralization medium and then subsequently switched to 0.5% for 2 days and replaced daily. Medium was replaced 2 hours before a 20 min treatment with 80 ng/mL leptin (Sigma) or 40 ng/mL Oncostatin M (R&D Diagnostics) or vehicle. RNA extractions were performed using Triazol (Gibco). Northern blots were performed with 15 μg of total RNA according to methods well known in the art.
To determine whether or not leptin could transduce its signal in osteoblasts, serum-starved primary osteoblasts isolated from wild-type mice were treated with leptin. […]
(§3) The phosphorylation of Stat3, a downstream effector of leptin signaling in its target cells (Tartaglia et al., 1995, Cell 83, 1263-1271; Baumann et al., 1996, Proc Natl Acad Sci USA 93, 8374-8378; Ghilardi et al., 1996, Proc Nati Acad Sci USA 93, 6231-6235; Vaisse et al., 1996, Nat Genet 14, 95-97), was monitored, in addition to the expression of two immediate early genes whose transcription is increased following leptin treatment of target cells (Elmquist et al., 1997, Endocrinology 138, 839-842). […]
For orientation: In western blotting, separated proteins are transferred to a membrane and probed.

For series [3], the system named is Tis11 and c-fos genes. Put plainly: Northern blot analysis of immediate early gene expression in primary osteoblast cultures. Format: cell-based, mice. As to conditions: 20 min treatment. Here is the method:
as §2
as §3, with “839-842). As a positive control oncostatin-M that induces Stat3 phosphorylation and activates the expression of the same two immediate early genes in osteoblasts (Levy et al., 1996, Endocrinology 137, 1159-1165) was utilized. Western blot analysis was performed to determine Stat3 phosphorylation as follows.” for “839-842).”

For series [4], the system named is primary osteoblast cultures from wild-type mice. The series is described as follows: long-term leptin treatment of primary osteoblast cultures (van Gieson and von Kossa staining). It is filed as cell-based. As to conditions: 1.2 μg/mL for 5 days, versus control (vehicle) cultures. Here is the method:
To determine whether or not leptin could transduce its signal in osteoblasts, serum-starved primary osteoblasts isolated from wild-type mice were treated with leptin. Primary osteoblast cultures from calvaria of newborn wild-type or db/db mice were established as previously described (Ducy et al., 1999, Genes Dev 13, 1025-1036) and maintained in mineralization medium (αMEMI 0.1 mg/mL ascorbic acid; 5 mM […]) supplemented with 10% […]. Cultures of mutant cells were maintained in this medium for 15 days before analysis. Cultures derived from wild-type mice were maintained for 10 days in this medium then the percentage of serum was reduced to 0.5% and the medium supplemented with 1.2 μg/mL leptin (Sigma) or vehicle for 5 days.
Finally, the effect of a long-term leptin treatment of primary osteoblast cultures from wild-type mice on extracellular matrix synthesis and bone matrix mineralization was determined. The presence of a collagen-rich extracellular matrix and of mineralization nodules was assessed by whole-mount staining of the cultures by the van Gieson and von Kossa reagent, respectively. No difference was observed when assessing collagen synthesis or mineralization nodule formation between control and leptin-treated cultures (FIG. 5E).

In series [5] the test system is ob/ob mice. Put plainly: intracerebroventricular infusion of leptin in ob/ob mice, bone histology and histomorphometry. It is filed as in vivo. As to conditions: ovariectomized ob/ob mice, third ventricle, 8 ng/hr, 28 days, versus PBS. Here is the method:
as §1
The increase in bone mass could be due to an increase in osteoblastic bone formation, to a decrease in osteoclastic bone resorption, or to a combination of both abnormalities. To study osteoblast function in vivo, the rate of bone formation was quantified following double labeling with calcein, a marker of newly formed bone (FIG. 3A) as described (Ducy et al., 1999, Genes Dev 13, 1025-1036). Calcein was injected twice at 8 day intervals and animals were sacrificed two days later. In 3 month-old, and 6 month-old ob/ob mice there was a 70% and 60%, respectively, increase of the bone formation rate compared to the one of wild-type littermates (FIG. 3B).
Lastly, the issue of whether leptin binding to its hypothalamic receptor could correct the high bone mass phenotype of the ob/ob mice as it can rescue their obesity phenotype was addressed. To that end pumps delivering either PBS or leptin (8 ng/hr) in the third ventricle of ob/ob mice were inserted as follows. Animals were anesthetized with avertin and placed on a stereotaxic instrument (Stoelting). The calvaria was exposed and a 0.7 mm hole was drilled upon bregma. A 28-gauge cannula (Brain infusion kit U, Alza) was implanted into the third ventricle according to the following coordinates: midline, −0.3 AP, 3 mm ventral (0 point bregma). The cannula was secured to the skull with cyanoacrylate, and attached with Tygon tubing to an osmotic pump (Alza) placed in the dorsal subcutaneous space of the animal. The rate of delivery was 0.25:1/hour (8 ng/hr of leptin (Sigma)) or PBS for 28 days. The dosage has been previously shown to have no effect when administered systemically (Halaas et al., 1997, Proc Nati Acad Sci USA 94, 8878-8883). […]

Series [6] can be described thus: serum leptin radioimmunoassay in centrally infused ob/ob mice. Format: in vivo. As to conditions: after intracerebroventricular infusion, 8 ng/hr, 28 days. Here is the method:
The coexistence of a high bone mass phenotype and of hypogonadism was so exceptional that it raised the hypothesis that bone resorption might be defective in these mice. The increased urinary elimination of deoxypyridinoline crosslinks (Dpd), a biochemical marker of bone resorption (Eyre et al., 1988, Biochem 252, 494-500), in the ob/ob mice argued against this hypothesis (wild-type: 10.5±2.5 nM Dpd/mM creatinine; ob/ob: 24.0 b 4.0 nM Dpd/mM creatinine). Deoxypyridinoline crosslinks were measured in morning urines using the Pyrilinks-D immunoassay kit (Metra Biosystem). Creatinine values were used for standardization between samples (Creatinine kit, Metra Biosystem). Circulating concentration of […] and leptin were quantified by radioimmunoassays, using the third generation estradiol kit (Diagnostic system laboratories) and the mouse leptin RIA kit (Linco), respectively. […] Coadministration of an estrogen analog with an Ob or ObR inhibitor further increases the high bone mass phenotype.
Lastly, the issue of whether leptin binding to its hypothalamic receptor could correct the high bone mass phenotype of the ob/ob mice as it can rescue their obesity phenotype was addressed. […]

For series [7] the following is noted: 8 ng/hr dosage, systemic; cited from earlier work.
[8] abbreviates: end of the 3-month treatment period.
Setting [9] is: female ob/ob mice, subcutaneous pellets, 3-month treatment.

`C[C@]12CC[C@@H]3c4ccc(O)cc4CC[C@H]3[C@@H]1CC[C@@H]2O` [17 β-estradiol]: in series [1] (setting [8]), the “increase in bone volume, treated ob/ob mice compared to estradiol-treated wild-type mice” value stood at 50% and the “increase in bone volume, treated ob/ob mice compared to untreated wild-type mice” value is 3 fold. Moreover, in series [1] (setting [9]), the “correction of hypogonadism (aspect of uteri, levels of estradiol in blood)” value is “correction of the uterus atrophy”; the “high bone mass phenotype compared to placebo treated ob/ob mice” value is recorded as “further increase of the high bone mass phenotype”; the osteoclast number result is reported as “normalization of the osteoclast number”. In series [1] (female ob/ob mice, subcutaneous pellets, 3-month treatment, listed as estradiol), the “correction of hypogonadism (aspect of uteri, levels of estradiol in blood)” value is recorded as “corrected their hypogonadism”. Also, the “bone trabeculae, histological analysis of vertebrae” value in series [1] (treated wt and even more treated ob/ob mice) is reported as “significant increase in bone trabeculae”.
For “leptin: endogenous polypeptide product of an ob gene; polypeptide hormone (Sigma)”, in series [2] (several doses, physiologic and supraphysiologic), the “Stat3 phosphorylation, several doses” value is “failed to induce”. For the same molecule, the “expression of Tis11 and c-fos” value in series [3] is listed as “not”. Moreover, in series [4], the “collagen synthesis (van Gieson staining)” value is reported as “No difference; also recorded: No effect” and the “matrix mineralization / mineralization nodule formation (von Kossa staining)” value is on record as “No difference; also recorded: No effect”. In series [5], the “bone appearance, classical histology” value is reported as “regained a normal appearance”; the bone formation rates result is “significantly decreased”; the bone volume result was “significantly decreased”; the number of trabeculae result is “fewer trabeculae”. Further, the trabeculae thickness result in series [5] is given as “significantly decreased”. Moreover, the “leptin in the serum” value in series [6] is given as “No leptin”. In addition, the “effect of the dosage when administered systemically” value in series [7] was “no effect”.

B1: Oncostatin-M: positive control that induces Stat3 phosphorylation and immediate early gene expression in osteoblasts (protein, UniProt P13725 26-221, looked up)
Oncostatin-M: AAIGSCSKEYRVLLGQLQKQTDLMQDTSRLLDPYIRIQGLDVPKLREHCRERPGAFPSEETLRGLGRRGFLQTLNATLGCVLHRLADLEQRLPKAQDLERSGLNIEDLEKLQMARPNILGLRNNIYCMAQLLDNSDTAEPTKAGRGASQPPTPTPASDAFQRKLEGCRFLHGYHRFMHSVGRVFSKWGESPNRSRR
B1: in series [2] (primary osteoblasts from wild-type mice, serum-starved), the Stat3 phosphorylation entry is “did induce”. Also, the “expression of Tis11 and c-fos” value in series [3] was “quickly and transiently activated”.
